In paper PMC6967409 (Frontiers in Chemistry, 2020):
Where “and” joins values, the source holds several entries; their conditions need not be identical. Equal entries are not always repeated. Where two headings read alike, the source gives them in different places.

What was measured:
[1] = tested on: P. falciparum NF54 late stage gametocytes (>90% stage IV and V); assay: Gametocytocidal luciferase reporter assay, late stage, 72 h; assay type: cell-based, Plasmodium falciparum
Protocol: (§1) P. falciparum parasites (NF54, K1, and W2) were cultured in vitro in human erythrocytes (A^+ or O^+) under 90% N2, 5% CO2, and 5% O2 atmospheric conditions with supplemented RPMI 1640 media (Sigma Aldrich) containing Albumax II, as previously described (Verlinden et al., [2011]). This study was carried out according the guidelines set out by the Faculty of Health Sciences Ethical Committee, Ethical Clearance no. EC-120821/077. The protocol was approved by the Faculty of Health sciences ethical committee at the University of Pretoria. All subjects gave written informed consent in accordance with the Declaration of Helsinki. Parasite proliferation was monitored microscopically using Giemsa stained smears. Synchronized ring stage parasites (>95%) were obtained using a 5% D-sorbitol (Sigma Aldrich) treatment. […] Gametocyte cultures were kept stationary under 90% N2, 5% CO2, and 5% O2 atmospheric conditions at 37°C and treated with 50 mM N-acetyl-glucosamine (NAG) to eliminate residual invasion of asexual parasites.
(§2) Gametocytocidal activity was determined using the luciferase reporter line (Reader et al., [2015]) to derive dose responses with two-fold serial drug dilutions for 48 h against early stage gametocytes (day 5 post-induction population, >90% stage I–III) and 10-fold serial drug dilutions for 72 h against late stage gametocytes (day 10 post-induction population, >90% late stage IV–V) (2% gametocytemia, 2% hematocrit), at 37°C under 90% N2, 5% CO2, and 5% O2 atmospheric conditions.

[2] = Cytotoxicity, Cytoselect LDH cytotoxicity assay kit; assay type: cell-based; settings: human, HepG2 cells
Protocol: (§3) Cytotoxicity (EC50) was determined against Chinese hamster ovarian (CHO) using a 3-(4,5-dimethylthiazol-2-yl)-2,5-diphenyltetrazolium bromide (MTT) assay and hepatocellular carcinoma cells (HepG2) using the Cytoselect LDH cytotoxicity assay kit (Cell Biolabs).

[3] = tested on: P. falciparum Dd2; assay: Metabolic (parasite LDH) assay, asexual ring stage parasites, 48 h; assay type: cell-based; settings: Plasmodium falciparum, pLDH, Dd2 CQ, pyrimethamine resistant
Protocol: (§4) Working solutions of the derivatives were prepared from a 10 mM stock solution in 100% DMSO in supplemented RPMI 1640 media containing Albumax II with a final DMSO concentration of <0.1%, previously determined as being non-toxic to intraerythrocytic asexual parasites and gametocytes. Dose responses were assayed using a two-fold serial drug dilution on in vitro >95% ring stage intraerythrocytic P. falciparum parasites at 37°C under 90% N2, 5% CO2, and 5% O2 atmospheric conditions, detecting both parasite lactate dehydrogenase (pLDH) activity as a metabolic marker following a 48 h drug exposure (1.5–2% parasitemia and 2% hematocrit; Makler et al., [1993]) and SYBR Green I fluorescence as proliferative marker following a 96 h drug exposure (1% parasitemia and 1% hematocrit). […] Data analysis was performed using GraphPad Prism 7.

[4] = tested on: P. falciparum NF54; assay: Proliferative (SYBR Green I) assay, asexual parasites, 96 h; assay type: cell-based; settings: Plasmodium falciparum, ±SEM
Protocol: as §1, §4

[5] = tested on: P. falciparum W2; assay: as above; assay type: cell-based; settings: Plasmodium falciparum, ±SEM
Protocol: as §1, §4

[6] = tested on: P. falciparum K1; assay: as above; assay type: cell-based; settings: Plasmodium falciparum, ±SEM
Protocol: as §1, §4

[7] = tested on: P. falciparum NF54; assay: Metabolic (parasite LDH) assay, asexual ring stage parasites, 48 h; assay type: cell-based; settings: Plasmodium falciparum, pLDH, CQ-sensitive NF54
Protocol: as §1, §4

[8] = tested on: P. falciparum NF54 early stage gametocytes (>90% stage I–III); assay: Gametocytocidal luciferase reporter assay, early stage, 48 h; assay type: cell-based; settings: Plasmodium falciparum, NF54, 48 h, read-out: Early Stage (EG, Luc 48 h) IC50
Protocol: as §1, §2

[9] = Cytotoxicity, MTT assay; assay type: cell-based; settings: Chinese hamster, CHO cells
Protocol: as §3

[10] = tested on: asexual P. falciparum NF54, Dd2, K1, W2; assay: Asexual P. falciparum, metabolic (pLDH) and proliferative (SYBR Green I) platforms; assay type: cell-based; settings: Plasmodium falciparum; drug-sensitive and -resistant parasites, both assay platforms; read-out: IC50, asexual P. falciparum metabolic activity and proliferation
Protocol: Data analysis was performed using GraphPad Prism 7.
The in vitro activities of the new derivatives were determined against drug sensitive NF54 and multi-drug resistant Dd2, K1, and W2 intraerythrocytic asexual P. falciparum malaria parasite strains using both a metabolic (parasite LDH) and a proliferative (SYBR Green I fluorescence) assay readout (Table 1).

[11] = tested on: HepG2 cells; assay: HepG2 cytotoxicity bioluminescence assay (CellTiterGlo, ATP); assay type: cell-based, human; settings: two biological replicates listed in one cell
Protocol: (§5) Briefly, HepG2-CD81 cells were seeded into 1,536 well plates containing 50 nL of test and control compounds diluted into DMSO. […] Next, 2 μL of luciferin reagent (Promega BrightGlo) was added to each well and luciferase activity was detected using a Perkin Elmer Envision plate reader. […] In parallel, plates were processed without sporozoites for HepG2 toxicity measurements.
(§6) In continuation of the transmission blocking theme, it is important to establish activities against liver stage parasites. […] This assay uses ultra-high-throughput screening methods optimized for a 1536-well format and a HepG2 human hepatoma cell line. […] To establish selectivity of the compounds for the parasite in the liver stage of infection, cytotoxicity was determined by measuring bioluminescence from the reaction between free ATP of compound-treated, uninfected hepatocytes and a luciferase reporter system.

[12] = as above; assay type: cell-based, human; settings: human, uninfected HepG2-CD81 cells; for IC50 at 72 h: two biological replicates listed in one cell; for EC50 at 72 h: uninfected HepG2, ATP bioluminescence
Protocol: as §5, §6

[13] = tested on: P. berghei ANKA GFP-Luc-SMcon sporozoites; assay: P. berghei-luciferase liver stage bioluminescence assay (causal prophylactic mode) in HepG2-CD81 cells; assay type: cell-based, Plasmodium berghei; settings: for Emax: 48 h, read-out: P.berghei-Luciferase Liver Stage Bioluminescence Assay: Maximum measured (%)
Protocol: as §5, §6

[14] = Plasmodium falciparum, NF54, 72 h, read-out: Late Stage (LG, Luc 72 h) IC50, >90% stage IV and V gametocytes, ±SEM
[15] = read-out: Late Stage (LG, Luc 72 h) IC50, >90% stage IV and V gametocytes, ±SEM
[16] = >90% stage I–III gametocytes, ±SEM
[17] = Plasmodium berghei, two biological replicates listed in one cell
[18] = Plasmodium berghei, HepG2, 48 h, liver stage, HepG2 host cells, luciferase after 48 h, ±SD, read-out: P. berghei sporozoites IC50
[19] = Plasmodium berghei, two biological replicates listed in one cell, read-out: P.berghei-Luciferase Liver Stage Bioluminescence Assay: IC50
[20] = two biological replicates listed in one cell, read-out: P.berghei-Luciferase Liver Stage Bioluminescence Assay: IC50

Structure (SMILES)	IC50 [1, 14] [nM]	EC50 [2] [nM]	IC50 [3] [nM]	IC50 [4] [nM]	IC50 [5] [nM]	IC50 [6] [nM]	IC50 [7] [nM]	IC50 [8, 16] [nM]	EC50 [9] [nM]	IC50 [10] [nM]	further results
C[C@H]1[C@H](N2CCN(S(=O)(=O)c3cccc(C(F)(F)F)c3)CC2)O[C@@H]2O[C@@]3(C)CC[C@H]4[C@H](C)CC[C@@H]1[C@@]24OO3 [Compound 16]	0.4 to 0.7	431	7.46 ± 1.07	3.4 ± 0.6	4.6 ± 0.2	5	1.13 ± 0.12	19.7 ± 9.9	> 178000	–	IC50 [1, 15]: 0.4 ± 0.3 nM
CCCCCCCCCCCCCCCC(=O)N1CCN([C@@H]2O[C@@H]3O[C@@]4(C)CC[C@H]5[C@H](C)CC[C@@H]([C@H]2C)[C@@]35OO4)CC1 [Compound 26]	–	–	–	–	–	–	–	–	–	50 to 100	–
C[C@H]1[C@H](NS(=O)(=O)N2CCN(c3ccccn3)CC2)O[C@@H]2O[C@@]3(C)CC[C@H]4[C@H](C)CC[C@@H]1[C@@]24OO3 [Compound 29]	0.04 ± 0.03	173	6.4 ± 1.4	4.3 ± 0.4	3.3 ± 0.7	4.9 ± 0.9	1.68 ± 0.18	24.7 ± 4.9	> 197000	–	–
O=C1C(O)=C([C@H]2CC[C@H](c3ccc(Cl)cc3)CC2)C(=O)c2ccccc21 [Atovaquone]	–	–	–	–	–	–	–	–	–	–	HepG2 Cytotoxicity Bioluminescence Assay: Maximum measured (%) [11]: 16.9% and 8.57%; IC50 [11]: > 250 nM; IC50 at 72 h [12]: > 250 nM; EC50 at 72 h [12]: > 250 nM; Emax [13, 17]: 92.9%; IC50 [13, 18]: 2.52 ± 0.997 nM; IC50 [13, 19]: 3.23 nM; inhibition at 0.5 µM ([13]; Plasmodium berghei, Conc. 0.5 μM, read-out: P. berghei sporozoites Maximum inhibition %): 94.8 ± 2.76%; IC50 [13, 20]: 1.81 nM
C[C@H]1[C@H](N2CCN(S(=O)(=O)c3ccc(C(F)(F)F)cc3)CC2)O[C@@H]2O[C@@]3(C)CC[C@H]4[C@H](C)CC[C@@H]1[C@@]24OO3 [Compound 18]	4.8 ± 4.2	217	74.3 ± 6.42	13.9 ± 1.2	23.8 ± 1.4	22 ± 2.7	15.3 ± 2	89.7 ± 28.8	154000	15 to 74	–
C[C@H]1[C@H](N2CCN(C(=O)Nc3ccc(C(C)(C)C)cc3)CC2)O[C@@H]2O[C@@]3(C)CC[C@H]4[C@H](C)CC[C@@H]1[C@@]24OO3 [Compound 22]	17.7 ± 15.1	616	24.7 ± 2.79	1.87 ± 0.12	1.48 ± 0.14	1.12 ± 0.08	2.11 ± 0.53	–	2920	–	IC50 [8]: 45.9 ± 9.9 nM
COc1ccc(C[C@H](N)C(=O)N[C@H]2[C@@H](O)[C@H](n3cnc4c(N(C)C)ncnc43)O[C@@H]2CO)cc1 [Puromycin]	–	–	–	–	–	–	–	–	–	–	HepG2 Cytotoxicity Bioluminescence Assay: Maximum measured (%) [11]: 102.0% and 105.0%; IC50 [11]: 120 nM; IC50 at 72 h [12]: 114 nM; EC50 at 72 h [12]: 117 nM; Emax [13, 17]: 107%; IC50 [13, 18]: 22.7 ± 4.53 nM; IC50 [13, 19]: 19.5 nM; inhibition at 5 µM ([13]; Plasmodium berghei, Conc. 5 μM, read-out: P. berghei sporozoites Maximum inhibition %): 110 ± 4.24%; IC50 [13, 20]: 25.9 nM
C[C@H]1[C@H](NS(=O)(=O)N2CCN(c3ccc(C(F)(F)F)cn3)CC2)O[C@@H]2O[C@@]3(C)CC[C@H]4[C@H](C)CC[C@@H]1[C@@]24OO3 [Compound 30]	4 ± 3.8	311	9.64 ± 0.6	3.3 ± 0.3	3 ± 1	4.3 ± 1.3	1.8 ± 0.6	19.3 ± 6.2	34300	–	–
CCCCCCCCCCCCCCCCNC(=O)N1CCN([C@@H]2O[C@@H]3O[C@@]4(C)CC[C@H]5[C@H](C)CC[C@@H]([C@H]2C)[C@@]35OO4)CC1 [Compound 21]	–	–	–	–	–	–	–	–	–	50 to 100	–
C[C@H]1[C@H](N2CCN(S(=O)(=O)c3cccc(F)c3)CC2)O[C@@H]2O[C@@]3(C)CC[C@H]4[C@H](C)CC[C@@H]1[C@@]24OO3 [Compound 17]	0.4 to 0.7	637	6.2 ± 0.7	3.1 ± 0.2	4.6 ± 0.2	4.85 ± 1.1	2 ± 0.6	13.1 ± 7.2	> 196000	–	IC50 [1, 15]: 0.6 ± 0.4 nM
CO[C@H]1O[C@@H]2O[C@@]3(C)CC[C@H]4[C@H](C)CC[C@@H]([C@H]1C)[C@@]24OO3 [Artemether 3, artemether]	–	–	–	–	–	–	–	–	–	–	IC50 [13, 18]: > 10000 nM; inhibition at 10 µM ([13]; Plasmodium berghei, Conc. 10 μM, read-out: P. berghei sporozoites Maximum inhibition %): 49.4%
CCCCCCCCCCCCCCCCS(=O)(=O)N1CCN([C@@H]2O[C@@H]3O[C@@]4(C)CC[C@H]5[C@H](C)CC[C@@H]([C@H]2C)[C@@]35OO4)CC1 [Compound 14]	–	–	–	–	–	–	–	–	–	50 to 100	–
CCCCS(=O)(=O)N1CCN([C@@H]2O[C@@H]3O[C@@]4(C)CC[C@H]5[C@H](C)CC[C@@H]([C@H]2C)[C@@]35OO4)CC1 [Compound 13]	0.4 to 0.7	2720	–	2.7 ± 0.6	4.4 ± 1	3.1 ± 0.1	–	21.5 ± 10.4	–	–	IC50 [1, 15]: 0.5 ± 0.3 nM
CCCCCCNC(=O)N1CCN([C@@H]2O[C@@H]3O[C@@]4(C)CC[C@H]5[C@H](C)CC[C@@H]([C@H]2C)[C@@]35OO4)CC1 [Compound 20]	–	–	–	–	–	–	–	–	–	50 to 100	–
CC(=O)Nc1ccc(S(=O)(=O)N2CCN([C@@H]3O[C@@H]4O[C@@]5(C)CC[C@H]6[C@H](C)CC[C@@H]([C@H]3C)[C@@]46OO5)CC2)cc1 [Compound 15]	–	1950	3.54 ± 0.32	2.7 ± 0.7	5.4 ± 0.5	3.4 ± 0.3	1.3 ± 0.5	8 ± 2.3	> 177000	–	–
C[C@H]1[C@H](N2CCN(S(=O)(=O)c3ccc(F)cc3)CC2)O[C@@H]2O[C@@]3(C)CC[C@H]4[C@H](C)CC[C@@H]1[C@@]24OO3 [Compound 19]	0.7 ± 0.5	558	9.8 ± 0.4	3.4 ± 0.4	4.8 ± 0.5	4.2 ± 0.1	1.65 ± 0.04	12.1 ± 4.5	> 196000	–	–
